Laboratory results: patent US5358936A, “Anionic furanose derivatives, methods of making and using the same” (Gordon; Paul, priority 1991, dated 1994)
“And” between values parts separate entries of the source, which are not always exact repeats. Identical values can stand only once. “Also recorded” adds a separate entry of the source.

What was measured:
rat stomachs [1] = assay: Gastric pathology following inflammatory stress and indomethacin, fed rats (Example 20); parameters: species or system male Sprague Dawley rats; conditions: in vivo
hind limbs = assay: Hind-foot mobility in established adjuvant arthritis (Example 27); assay type: in vivo, Lewis rats; conditions: Compound III 50 mg/kg oral where given
Excerpt: Adjuvant arthritis was studied because it allows gaining of insight into effects of a drug in established and chronic inflammatory disease. Adjuvant arthritis shares certain features with rheumatoid arthritis but it is distinct. It is widely used in industry because it allows one to predict the potency of non-steroidal anti-inflammatory drugs (NSAID's) [Weichman, in Pharmaceutical Methods in the Control of Inflammation, Chang et al., eds.; Alan R. Liss, New York (1989) p. 362].
The rats used were of the Lewis strain, especially vulnerable to disease induction. Chronic polyarthritis was induced by the subcutaneous injection of complete Freund's adjuvant (CFA) into the rat tail. The CFA employed consists of 10 mg/ml heat-killed tubercle bacilli suspended in paraffin oil. An amount of 0.1 ml was injected, and the disease was allowed to develop over 14 days before daily assessments were made and treatments were initiated. Measurements that assess both increase in hind paw joint swelling and loss in hind limb function are taken.
Indomethacin was employed as a reference standard and given at 2 or 5 mg/kg. Treatment effects of Compound III, alone at 50 mg/kg given by oral gavage and in combination with indomethacin were assessed. Compound III was dissolved in water and indomethacin was suspended in water by homogenization. Both were administered sequentially by oral gavage.
Measurements by caliper include the lateral diameter of the ankle joint of each hind limb, and the dorsoventral diameter of the foot, just behind the toes. The prime measurement of function focusses on the fact that in many animals by day 14, and in most animals by day 16 after adjuvant administration, the arthritic rat can lose use of his hind limbs, which then are dragged behind him like logs. To quantify the recovery of function during treatment, a technique of Martel et al., Agents Actions, 15:403 (1984) was adapted. A blind assessment of the number of animals in each group that were able to draw their leg(s) under them and have these bear weight was carried out.

stomach ulcers = assay: Gastric ulcers in rats with corona virus infection treated with indomethacin (Example 26); assay type: in vivo, rat; conditions: indomethacin 30 mg/kg oral; cimetidine 25 mg/kg s.c. or Compound III 17.5 mg/kg s.c. where given; P<0.02
Excerpt: Corona virus is a non-lethal upper respiratory viral pathogen that not infrequently infects rat colonies. It is a type of rodent coryza or catarrh, the equivalent of a disease that falls somewhere between human influenza and a severe common cold. The animals of this study suffered from this condition, a circumstance which was evident by observation, and which was confirmed by virological diagnosis at the Biological Resources Laboratory of the University of Illinois at Chicago. Since stress is a common component of peptic ulcer development in both animals and man, it was concluded that this feature of the status of these experimental animals rendered them appropriate for an ulcer study.
In this study, animals were not food deprived and were divided into treatment groups such that 15 rats received 30 mg/kg indomethacin alone (in water by oral gavage), 14 rats received indomethacin plus an injection of 25 mg/kg cimetidine subcutaneously, and 7 rats received indomethacin plus subcutaneous injection of 17.5 mg/kg of Compound III.
All animals were sacrificed by ether euthanasia 24 hours later and their stomachs evaluated for ulcer pathology. In this study ulcers were not hemorrhagic. Results are shown below as the average number of stomach ulcers per stomach.

rat paw = conditions: in vivo; cited from earlier work
rat stomachs [2] = assay: Gastric pathology following inflammatory stress and indomethacin, food-deprived rats (Example 21); assay type: in vivo
Procedure: (§1) Stress was induced by the following procedure. On day one, under ether anesthesia, 18 male Sprague Dawley rats were injected with a suspension of Zymosan A (1 mg/ml in normal saline; Sigma Chemical Co.) in each hind paw. Swelling developed and persisted. This treatment generated activated blood complement locally (including the C5a moiety), which then spread by the bloodstream throughout the animal.
(§2) Twenty-four hours later all rat paws were reinjected, this time with 0.1 ml of proinflammatory zymosan-activated rat serum containing additional amounts of inflammatory complement fragment C5a (as in Example 23, hereinafter). Five hours later 30 mg/kg indomethacin in an aqueous suspension was given to nine such rats by oral garage. These rats also received a subcutaneous injection of 0.1 ml normal saline. Nine other such rats were given indomethacin as above, and Compound III (50 mg/kg in normal saline subcutaneously). Four additional rats, not stressed (normal) were given water by garage as a placebo and saline subcutaneously. All rats were fed ad libitum on standard diet.
In contrast to the study of Example 20, above, in this study animals were food deprived for 24 hours before and also during the 24 hours following drug treatments. All animals were subjected to the inflammatory stress as described in Example 20. Eight such rats received 30 mg/kg indomethacin, and eight rats received indomethacin and Compound III (subcut., 50 mg/kg). Four rats, not stressed, were given placebo by garage.
All animals were sacrificed by ether euthanasia 24 hours later, and their stomachs evaluated for ulcer-related pathology.
In the stressed animals given indomethacin alone, pathology was much more severe than in Example 20. For scoring, therefore, the frequency of ulcers per rat stomach was quantified, and whether they were or were not bleeding.

rat stomachs [3] = assay: Gastric pathology following inflammatory stress and indomethacin, fed rats (Example 20); assay type: in vivo, male Sprague Dawley rats; conditions: stress + indomethacin 30 mg/kg oral; Compound III 50 mg/kg subcutaneously where given; 24 hours
Procedure: as §1, §2
Twenty-four hours later all animals were sacrificed by ether euthanasia. Their stomachs were washed with saline and evaluated for ulcer-related pathology using an illuminated magnifying glass. This assay is similar to that reported by Kinney et al., J. Med. Chem., 33:327 (1990).

focal submucosal lesions [4] = assay: Ethanol-induced gastric focal lesions (Example 33); assay type: in vivo, rat; conditions: one hour post-ethanol, 50 mg/kg
[5] = Physicians' Desk Reference (1990); cited from earlier work
focal submucosal lesions [6] = assay: Ethanol-induced gastric focal lesions (Example 33); assay type: in vivo, rat
Procedure: At three hours after ethanol administration, this drug continued to suppress ethanol-induced focal lesions (-57 percent).
A suspension of 25 mg/kg sucralfate+25 mg/kg Compound III:Al in combination was given as a pretreatment administration to another group in the same study. The combination produced an unanticipated augmentation of therapeutic effect against ethanol-induced focal submucosal lesions (-90 percent) at three hours post-ethanol administration. The same interactive phenomenon was also observed when Compound III was used, rather than Compound III:Al.

[7] = Dissolution and buffering of suspensions, HCl titration (Example 16)
gastric mucosal ulcers = assay: Healing of established gastric ulcers induced by acetic acid (Example 34); assay type: in vivo, rat
Excerpt: To evaluate drug effects on peptic ulcer healing, gastric mucosal ulcers were produced in rats, after a two day fast, by a modification of the method of Konturek et al., Am. J. Med., Vol. 86, 6A, 32 (1989). Briefly, to produce a mucosal ulcer, Konturek et al. applied 100 percent acetic acid for twenty seconds to the stomach serosa through a small cylindrical mold, 4.2 mm in diameter. The aim here was to make ulceration more severe than was achieved by the Konturek group so that spontaneous healing would not be as pronounced as they found in the controls, over an experimental period of seven days.
All drugs studied were suspended in 0.25 percent (by weight) aqueous methylcellulose solution as the vehicle or diluent, which also served as the placebo given to the controls. Treatments were given once daily by oral gavage, in one milliliter of vehicle. The treatment groups were: Control; Sucralfate at 200 mg/kg; and Compound III:Al at 200 mg/kg.
At the end of the treatment period, stomachs were removed, ulcer diameters were measured, and determination was made of the presence or absence of perforation.
A second study was carried out in which ulcer evolution was permitted to take place over five additional days, in the absence and presence of treatment with Sucralfate.
A third study was begun one day following the start of study 2, in which ulcer evolution was allowed to take place over five additional days, in the absence and presence of treatment with Compound III:Al.
In another study, after ulcer induction as above, a different dosage protocol was employed at 24 hours to evaluate the interaction of Compound III and orally administered sucralfate on ulcer healing. […] Here, daily drug doses of the following were used: (a) sucralfate at 200 mg/kg, alone and (b) in combination with 80 mg/kg Compound III given by mouth at -45 minutes, and, in a third group, (c) in combination with 10 mg/kg Compound III given IV also at -45 minutes. In this interaction study, drug treatment was continued for three and not five days, as was the case for the above studies, followed by passage of two additional non-treatment days before sacrifice of animals for evaluation of stomach ulcer area and perforation.
Data from all ulcer-healing studies employing a drug dosage of 200 mg/kg and the same ulcerogenesis protocol were pooled as to the frequency of gastric perforation observed on day five, not shown separately, with the day six perforation data shown above.

[8] = Solubility / dissolution in acid, water and 20 percent methanol; assay type: physicochemical; conditions: pH 1.2; Compound III:Al 2.5 mg/ml
[9] = three hours post-ethanol, 50 mg/kg, combination 25 + 25 mg/kg

COc1ccc2c(c1)c(CC(=O)O)c(C)n2C(=O)c1ccc(Cl)cc1 [Indomethacin]
ulceration by indomethacin without stress (rat stomachs [1]): induced no ulceration
Total Immobility - Percent (hind limbs; Day 0, indomethacin 2 mg/kg/day): 100%
Total Immobility - Percent (hind limbs; Day 0, indomethacin 5 mg/kg/day): 100%
Total Immobility - Percent (hind limbs; Day 1, indomethacin 2 mg/kg/day, p < 0.02): 67%
Total Immobility - Percent (hind limbs; Day 1, indomethacin 5 mg/kg/day, p < 0.01): 70%
Total Immobility - Percent (hind limbs; Day 2, indomethacin 2 mg/kg/day, p < 0.01): 44%
Total Immobility - Percent (hind limbs; Day 2, indomethacin 5 mg/kg/day): 20%
Total Immobility - Percent (hind limbs; Day 3, indomethacin 2 mg/kg/day): 44%
Total Immobility - Percent (hind limbs; Day 3, indomethacin 5 mg/kg/day, control 100 (12/12)): 10%
Ulcer Frequency per stomach, Mn ± SE (stomach ulcers): 2.53 ± 0.52 Per Stomach
effect on edema that develops following removal of the tourniquet, in words (rat paw): not effective at any time
bleeding ulcers in group (rat stomachs [2]; eight rats): 22
total ulcers found in group (rat stomachs [2]; eight rats): 23 ulcers
Bleeding Ulcer Frequency, Mn ± SE (rat stomachs [2]; indomethacin 30 mg/kg, Compound III 50 mg/kg subcut. where given, 24 hours, P<0.001 vs indomethacin alone): 2.65 ± 0.063 Per Rat
Total Ulcer Frequency, n ± SE (rat stomachs [2]; indomethacin 30 mg/kg, Compound III 50 mg/kg subcut. where given, 24 hours, P<0.01 vs indomethacin alone): 2.88 ± 0.67 Per Rat
ulcers per affected rat (rat stomachs [2]; indomethacin: all eight rats, indomethacin + Compound III: only two rats): 1-5 ulcers
Mean Pathology score (rat stomachs [3]): 1.43
Pathology score, individual rat (rat stomachs [3]): 0.5 and 1.0 and 0.0 and 4.0 and 7.0

sucrose octakis-(hydrogen sulfate) aluminum complex [sucralfate, reference compound]
change in focal lesions versus control (focal submucosal lesions [4]): -100%
Focal Lesions per Stomach (focal submucosal lesions [4]; n = 6, control 4.17 ± 1.58, p<0.05): 0.00 per Stomach
absorption from the gastrointestinal tract [5]: only minimally absorbed
effect on ethanol-produced gastric pathology, in words (focal submucosal lesions [6]; pretreatment 50 mg/kg one hour before ethanol): inhibited all focal submucosal lesions; also recorded: All large vessel vasodilation provoked by ethanol was also inhibited one hour after ethanol treatment; also recorded: at three hours all therapeutic effects of sucralfate on ethanol-produced gastric pathology were absent
change in focal lesions versus control (focal submucosal lesions [6]; [9]): +6%
change in focal lesions versus control, study employing Compound III (focal submucosal lesions [6]; [9]): +44%
Focal Lesions per Stomach, study employing Compound III (focal submucosal lesions [6]; three hours post-ethanol, 50 mg/kg, combination 25 + 25 mg/kg, control 2.25 ± 0.98): 3.25 + 1.01 per Stomach
Focal Lesions per Stomach (focal submucosal lesions [6]; three hours post-ethanol, 50 mg/kg, combination 25 + 25 mg/kg, n = 17, control 4.94 ± 1.41): 5.24 ± 1.49 per Stomach
HCl needed to lower pH of suspension to below pH 2.00 ([7]; 50 mg in 20 ml distilled water, initial pH 4.44 (aluminum trihydroxide), 4.91 (sucralfate), 4.23 (Compound III:Al), water alone 0.30): 0.4 meq
buffering action, in words ([7]; HCl titration): only a minor buffering action between pH 1.73 and 1.47
Relative Buffering Power between pH 4.5 and 2.0 ([7]; sucralfate = 1): 1
DRUG EFFECT on mean ulcer score (gastric mucosal ulcers; Day 6, 200 mg/kg oral): -33%
Established ulcer score, individual animal (area in cm^2, + 2.0 for perforation) (gastric mucosal ulcers; Day 6, 200 mg/kg oral once daily, * = perforation, 200 mg/kg): 2.96 and 5.75 and 3.0 and 1.0 and 0.96 and 3.5 and 1.5 and 0.1 and 1.05 and 0.4
MEAN SCORE, established ulcers (gastric mucosal ulcers; Day 6, 200 mg/kg oral, controls 3.03 ± 0.73 (sucralfate study, not significant), 4.12 ± 0.67 (Compound III:Al study, P < 0.001)): 2.02 ± 0.55
DRUG EFFECT on mean ulcer area (gastric mucosal ulcers; day six, 200 mg/kg oral): -43%
Established ulcer area, MEAN (gastric mucosal ulcers; day six, 200 mg/kg oral, controls 2.14 ± 0.43 (sucralfate, P < 0.1), 2.32 ± 0.61 (Compound III:Al, P < 0.05)): 1.22 ± 0.31 CM^2
Established ulcer area, MEAN (comparative treatments) (gastric mucosal ulcers; day six, three days treatment, sucralfate 200 mg/kg alone): 2.11 ± 0.41 CM^2
Perforation As Percent (gastric mucosal ulcers; pooled, 200 mg/kg, control 50, Compound III:Al P < 0.001 vs control and vs sucralfate): 38%
Perforation Frequency (gastric mucosal ulcers; pooled, 200 mg/kg, days five and six, control 26/52): 12/32
dissolution of suspension in acid [8]: complete dissolution
